Read-outs that look alike come from different tables or passages of the source.

Results on 21 compounds are retold here after patent US10766869B2, “Triazoles for the treatment of demyelinating dieases” (Vertex Pharmaceuticals Incorporated, priority 2015, dated 2020).

This experiment has as its system primary rat mixed cortical cells. Nature of the experiment: In vitro myelination assay (MBP positive myelin strands, fold myelin pixels above background). As to conditions: Rattus norvegicus; for fold induction at 1 µM: 1.0 μM compound; for fold induction at 10 µM: 10.0 μM compound. In kind it is cell-based. A digest of the protocol:
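Mixed cortical culture, P1 rat, 87,500-95,000 cells/well; compound present from seeding, refreshed days 6 and 10; 14 d, 37 °C, 5% CO2. Day 14: PFA fix, anti-MBP + Hoechst. Read-out: fold MBP myelin pixels over untreated, tested at 1.0 and 10.0 μM.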

Setting [1] is: relative to baseline of no added compound, read-out: Fold myelin pixels above background.
The mark [2] stands for this setting: relative to baseline of no added compound, read-out: Fold myelin pixels above background, 1.0 μM.
The mark [3] stands for this setting: relative to baseline of no added compound, read-out: Fold myelin pixels above background, 10.0 μM.
[4] abbreviates: read-out: Fold myelin pixels above background relative to baseline of no added compound.

Take `FC(F)(F)c1cc(Nc2ncn(-c3cccnc3)n2)nc(N2CCN(C3COC3)CC2)c1` [Compound 684, 6-[4-(oxetan-3-yl)piperazin-1-yl]-N-[1-(3-pyridyl)-1,2,4-triazol-3-yl]-4-(trifluoromethyl)pyridin-2-amine]: under setting [1], the fold induction at 1 µM lay in the range of 10 to 100 and the fold induction at 10 µM is 10 to 100.
Turning to `Brc1cc(Nc2ncn(-c3ccccc3)n2)cc(N2CCOCC2)c1` [Compound 168, N-(3-bromo-5-morpholino-phenyl)-1-phenyl-1,2,4-triazol-3-amine], under setting [2], the fold induction at 1 µM lay within 1000 to 10000. The fold induction at 10 µM under setting [3] lay in the range of 1000 to 10000.
Take `Cc1cc(Nc2ncn(-c3cccc(F)c3)n2)cc(NC2CCN(C3COC3)CC2)c1` [Compound 192, N3-[1-(3-fluorophenyl)-1,2,4-triazol-3-yl]-5-methyl-N1-[1-(oxetan-3-yl)-4-piperidyl]benzene-1,3-diamine]: the fold induction at 1 µM under setting [2] was 100 to 1000. Besides, the fold induction at 10 µM under setting [3] is not above 1.
In the case of `COCc1cc(-n2cnc(Nc3cc(C)cc(N4CCN(C5COC5)CC4)c3)n2)ncn1` [Compound 364, 1-[6-(methoxymethyl)pyrimidin-4-yl]-N-[3-methyl-5-[4-(oxetan-3-yl)piperazin-1-yl]phenyl]-1,2,4-triazol-3-amine], under setting [2], the fold induction at 1 µM was 1 to 10. In addition, the fold induction at 10 µM under setting [3] lay in the range of 10 to 100.
As to `Cc1cc(Nc2ncn(-c3cc(F)cc(F)c3)n2)cc(NC2CCOC2)c1` (stereo not drawn) [Compound 8, N3-[1-(3,5-difluorophenyl)-1,2,4-triazol-3-yl]-5-methyl-N1-tetrahydrofuran-3-yl-benzene-1,3-diamine], under setting [2], the fold induction at 1 µM lay in the range of 100 to 1000. The fold induction at 10 µM under setting [3] was 1 to 10.
On to `Cc1cc(Nc2ncn(-c3cc(F)cc(F)c3)n2)cc(C2(O)CCN(C)C2)c1` (stereo not drawn) [Compound 242, 3-[3-[[1-(3,5-difluorophenyl)-1,2,4-triazol-3-yl]amino]-5-methyl-phenyl]-1-methyl-pyrrolidin-3-ol], for which the fold induction at 1 µM under setting [2] was in the range of 10 to 100. In addition, the fold induction at 10 µM under setting [3] is not above 1.
Take `Cc1cc(Nc2ncn(-c3ccnc(F)c3)n2)cc(N2CCOCC2)c1` [Compound 403, 1-(2-fluoro-4-pyridyl)-N-(3-methyl-5-morpholino-phenyl)-1,2,4-triazol-3-amine]: under setting [1], the fold induction at 1 µM was in the range of 1000 to 10000 and the fold induction at 10 µM was 10 to 100.
On to `Cc1cc(NCCN2CCOCC2)cc(Nc2ncn(-c3cc(F)cc(F)c3)n2)c1` [Compound 858, N1-[1-(3,5-difluorophenyl)-1,2,4-triazol-3-yl]-5-methyl-N3-(2-morpholinoethyl)benzene-1,3-diamine], for which, under setting [4], the fold induction at 1 µM lay in the range of 10 to 100 and the fold induction at 10 µM is not above 1.
`Fc1cc(-n2cnc(Nc3cc(C(F)F)cc(N4CCN(C5CC5)CC4)c3)n2)ccn1` [Compound 153, N-[3-(4-cyclopropylpiperazin-1-yl)-5-(difluoromethyl)phenyl]-1-(2-fluoro-4-pyridyl)-1,2,4-triazol-3-amine]: under setting [2], the fold induction at 1 µM is 100 to 1000. Moreover, under setting [3], the fold induction at 10 µM lay in the range of 10 to 100.
The like results for `Cc1cc(Nc2ncn(-c3ccccc3)n2)cc(N2CCS(=O)(=O)CC2)c1` [Compound 89, N-[3-(1,1-dioxo-1,4-thiazinan-4-yl)-5-methyl-phenyl]-1-phenyl-1,2,4-triazol-3-amine] were, in that order, 1000 to 10000 and 100 to 1000.
The like results for `CCc1cc(Nc2ncn(-c3ccc(F)c(F)c3)n2)cc(N2CC(N3CCOCC3)C2)c1` [Compound 198, 1-(3,4-difluorophenyl)-N-[3-ethyl-5-(3-morpholinoazetidin-1-yl)phenyl]-1,2,4-triazol-3-amine] were, in that order, 100 to 1000 and 10 to 100.
As to `Cc1cc(Nc2ncn(-c3cc(F)cc(F)c3)n2)cc(N2CCC(C(=O)N3CCOCC3)CC2)c1` [Compound 589, [1-[3-[[1-(3,5-difluorophenyl)-1,2,4-triazol-3-yl]amino]-5-methyl-phenyl]-4-piperidyl]-morpholino-methanone], under setting [1], the fold induction at 1 µM fell in the range of 10 to 100 and the fold induction at 10 µM was not above 1.
Turning to `Cc1cc(Nc2ncn(-c3ccccc3)n2)cc(N2C[C@@H]3C[C@H]2CN3C2COC2)c1` [Compound 219, N-[3-methyl-5-[(1S,4S)-2-(oxetan-3-yl)-2,5-diazabicyclo[2.2.1]heptan-5-yl]phenyl]-1-phenyl-1,2,4-triazol-3-amine], the fold induction at 1 µM under setting [2] lay within 100 to 1000. Besides, the fold induction at 10 µM under setting [3] lay in the range of 1 to 10.
For `Cc1cc(Nc2ncn(-c3cc(F)ccc3F)n2)cc(N2CCC(C3COC3)CC2)c1` [Compound 383, 1-(2,5-difluorophenyl)-N-[3-methyl-5-[4-(oxetan-3-yl)-1-piperidyl]phenyl]-1,2,4-triazol-3-amine], the fold induction at 1 µM under setting [2] fell in the range of 10 to 100. Besides, under setting [3], the fold induction at 10 µM was 1 to 10.
Consider `CCN(CC)CCN1CCN(c2cc(C)cc(Nc3ncn(-c4cc(F)cc(F)c4)n3)c2)CC1` [Compound 987, N-[3-[4-[2-(diethylamino)ethyl]piperazin-1-yl]-5-methyl-phenyl]-1-(3,5-difluorophenyl)-1,2,4-triazol-3-amine], for which, under setting [4], the fold induction at 1 µM is 1 to 10 and the fold induction at 10 µM was not above 1.
On to `Cc1cc(Nc2ncn(-c3cc(F)cc(F)c3)n2)cc(OCCN2CCOCC2)c1` [Compound 812, 1-(3,5-difluorophenyl)-N-[3-methyl-5-(2-morpholinoethoxy)phenyl]-1,2,4-triazol-3-amine], for which, under setting [4], the fold induction at 1 µM fell in the range of 10 to 100 and the fold induction at 10 µM lay in the range of 10 to 100.
For the compound `COC[C@H]1CCCN1c1cc(F)cc(-n2cnc(Nc3cc(C)cc(N4CCN(C5COC5)CC4)c3)n2)c1` [Compound 491, 1-[3-fluoro-5-[(2R)-2-(methoxymethyl)pyrrolidin-1-yl]phenyl]-N-[3-methyl-5-[4-(oxetan-3-yl)piperazin-1-yl]phenyl]-1,2,4-triazol-3-amine], under setting [1], the fold induction at 1 µM is 100 to 1000 and the fold induction at 10 µM is not above 1.
`Cc1cc(Nc2ncn(-c3cc(F)cc(F)c3)n2)cc([C@@]2(C)CN(C)C(=O)O2)c1` (single isomer, unassigned) [Compound 611]: under setting [1], the fold induction at 1 µM was 10 to 100 and the fold induction at 10 µM was 1 to 10.
Turning to `CC(C)(C)N1CCN(c2cc(Nc3ncn(-c4cc(F)cc(F)c4)n3)cc(N3CCN(C(C)(C)C)CC3)c2)CC1` [Compound 573, N-[3,5-bis(4-tert-butylpiperazin-1-yl)phenyl]-1-(3,5-difluorophenyl)-1,2,4-triazol-3-amine], under setting [1], the fold induction at 1 µM fell in the range of 1 to 10 and the fold induction at 10 µM lay in the range of 1 to 10.
In the case of `Fc1cc(F)cc(-n2cnc(Nc3cc(C4CCOCC4)nc(C4CC4)c3)n2)c1` [Compound 407, 2-cyclopropyl-N-[1-(3,5-difluorophenyl)-1,2,4-triazol-3-yl]-6-tetrahydropyran-4-yl-pyridin-4-amine], under setting [1], the fold induction at 1 µM lay within 1000 to 10000 and the fold induction at 10 µM is not above 1.
For the compound `Cc1cc(Nc2ncn(-c3cc(F)cc(F)c3)n2)cc(C2CN(C3COC3)CC(C)O2)c1` (stereo not drawn) [Compound 663, 1-(3,5-difluorophenyl)-N-[3-methyl-5-[6-methyl-4-(oxetan-3-yl)morpholin-2-yl]phenyl]-1,2,4-triazol-3-amine], under setting [1], the fold induction at 1 µM lay in the range of 10 to 100 and the fold induction at 10 µM was not above 1.
